Values of other authors as cited in US20260271921A1, “DILUTION-INDUCED RELEASE COMPOSITIONS AND METHODS OF USE THEREOF” (priority 2025, published 2026).

logP: 3.65
SMILES: CCN(CC)c1ccc2nc3c4ccccc4c(=O)cc-3oc2c1 [Nile Red]
